Activity calls are given as the source filed them.
Tests used:
[1] = target: T1, Short transient receptor potential channel 4 (Mus musculus, UniProt Q9QUQ5); test: mouse TRPC4 channel inhibitors, dose response, cell-based, HEK293 TRPC4/mu-opioid, Fluo-4 calcium (AID 434942); format: functional;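 also: potency of inhibitors blocking the TRPC4 calcium response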
T1 sequence (Q9QUQ5 whole entry): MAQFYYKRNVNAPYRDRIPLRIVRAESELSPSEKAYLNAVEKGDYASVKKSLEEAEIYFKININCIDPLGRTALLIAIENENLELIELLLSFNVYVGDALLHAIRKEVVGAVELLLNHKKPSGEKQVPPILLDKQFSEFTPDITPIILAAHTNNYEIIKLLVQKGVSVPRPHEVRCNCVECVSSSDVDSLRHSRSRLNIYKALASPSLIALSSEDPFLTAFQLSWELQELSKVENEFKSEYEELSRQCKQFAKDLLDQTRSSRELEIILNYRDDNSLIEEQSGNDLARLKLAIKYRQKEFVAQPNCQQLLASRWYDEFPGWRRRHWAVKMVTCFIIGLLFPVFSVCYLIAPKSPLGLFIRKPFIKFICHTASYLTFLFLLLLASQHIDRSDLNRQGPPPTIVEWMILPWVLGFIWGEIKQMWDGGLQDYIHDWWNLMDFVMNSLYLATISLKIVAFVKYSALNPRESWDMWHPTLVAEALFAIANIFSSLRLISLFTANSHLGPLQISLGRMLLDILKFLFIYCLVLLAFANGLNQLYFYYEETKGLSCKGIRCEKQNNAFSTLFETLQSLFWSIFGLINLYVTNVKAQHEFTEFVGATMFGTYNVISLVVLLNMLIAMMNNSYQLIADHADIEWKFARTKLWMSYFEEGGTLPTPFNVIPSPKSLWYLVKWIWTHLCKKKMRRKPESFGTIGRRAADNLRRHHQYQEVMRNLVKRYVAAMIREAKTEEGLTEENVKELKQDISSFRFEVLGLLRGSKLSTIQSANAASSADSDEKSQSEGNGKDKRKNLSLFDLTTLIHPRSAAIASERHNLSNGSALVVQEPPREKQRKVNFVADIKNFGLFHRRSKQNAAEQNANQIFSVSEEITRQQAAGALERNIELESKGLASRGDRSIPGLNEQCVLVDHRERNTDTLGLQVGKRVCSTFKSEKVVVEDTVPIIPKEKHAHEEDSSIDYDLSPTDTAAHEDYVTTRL

[2] = inhibitors of HIV Env-driven cell fusion, dose response, cherry-pick (AID 652057); format: functional, cell-based
[3] = ZM109 Env clade C HIV-1 fusion inhibitors, dose response, HeLa effector, CEM target cells, luciferase, cherry-pick (AID 652058); format: functional, cell-based
[4] = off-target signal loss in HeLa-CEM21 co-culture – HeLa F-luc CTL cells, cherry-picked, counter-screen for HIV-1 Env fusion inhibitor project, dose response (AID 652040); format: functional, cell-based;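 also: potency for signal decrease marking cytotoxic or nonspecific inhibition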
[5] = inhibitors of clade B AD8 Env fusion, dose response, cell-based, cherry-pick (AID 652062); format: functional;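 also: luciferase signal from cell-cell fusion driven by HIV-1 clade B AD8 Env; potency is for inhibitors of fusion seen as a drop in luminescence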
[6] = intracellular Trypanosoma cruzi inhibitors in host cells – cell-based, plate reader, cherry-pick samples, set 3, dose response (AID 651818); format: functional;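 also: compounds incubated with infected cells for about four days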
[7] = target: T2, X-box-binding protein 1 (Homo sapiens, UniProt P17861); format: functional, Cricetulus griseus;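 also: confirmatory dose-response counter-screen serving a CHOP assay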
T2 sequence (P17861 whole entry): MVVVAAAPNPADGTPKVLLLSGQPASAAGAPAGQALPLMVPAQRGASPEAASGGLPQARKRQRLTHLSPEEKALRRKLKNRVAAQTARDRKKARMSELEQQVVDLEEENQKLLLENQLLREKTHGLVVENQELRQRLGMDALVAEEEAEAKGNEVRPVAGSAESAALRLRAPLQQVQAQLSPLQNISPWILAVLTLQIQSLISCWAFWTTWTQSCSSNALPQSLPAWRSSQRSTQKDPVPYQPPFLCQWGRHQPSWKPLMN

[8] = target: T3, Aspartyl aminopeptidase (Plasmodium falciparum 3D7, UniProt Q8I2J3); test: Counterscreen for inhibitors of M1 and M17 aminopeptidases: QFRET-based biochemical high throughput dose response assay for inhibitors of the Plasmodium falciparum M18 Aspartyl Aminopeptidase (PFM18AAP). [Related PubChem assays: 1619 (Screening assay (M17LAP inhibitors).), 1445 (Screening assay (M1AAP inhibitors).)]
T3 sequence (Q8I2J3 whole entry): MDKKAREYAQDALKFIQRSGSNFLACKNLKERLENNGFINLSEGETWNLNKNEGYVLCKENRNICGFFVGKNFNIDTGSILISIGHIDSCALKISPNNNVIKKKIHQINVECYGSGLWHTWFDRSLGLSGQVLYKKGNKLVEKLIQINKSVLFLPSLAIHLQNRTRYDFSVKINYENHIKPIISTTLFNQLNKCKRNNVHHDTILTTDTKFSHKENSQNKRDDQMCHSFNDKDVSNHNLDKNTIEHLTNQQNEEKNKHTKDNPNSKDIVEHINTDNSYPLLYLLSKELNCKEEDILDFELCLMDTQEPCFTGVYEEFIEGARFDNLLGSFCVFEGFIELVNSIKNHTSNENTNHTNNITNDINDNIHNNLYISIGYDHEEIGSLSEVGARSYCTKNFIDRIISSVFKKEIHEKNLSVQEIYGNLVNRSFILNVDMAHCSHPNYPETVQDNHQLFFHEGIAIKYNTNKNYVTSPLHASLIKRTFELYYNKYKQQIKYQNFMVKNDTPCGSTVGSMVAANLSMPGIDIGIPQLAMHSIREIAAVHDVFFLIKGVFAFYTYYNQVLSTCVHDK

[9] = target: T4, Aminopeptidase N (Plasmodium falciparum FcB1/Columbia, UniProt O96935); test: P. falciparum M1AAP inhibitors, biochemical, fluorogenic H-Leu-NHMec substrate, 1536-well (AID 1445); parameters: species or system Plasmodium falciparum 3D7, 3D7
T4 sequence (O96935 whole entry): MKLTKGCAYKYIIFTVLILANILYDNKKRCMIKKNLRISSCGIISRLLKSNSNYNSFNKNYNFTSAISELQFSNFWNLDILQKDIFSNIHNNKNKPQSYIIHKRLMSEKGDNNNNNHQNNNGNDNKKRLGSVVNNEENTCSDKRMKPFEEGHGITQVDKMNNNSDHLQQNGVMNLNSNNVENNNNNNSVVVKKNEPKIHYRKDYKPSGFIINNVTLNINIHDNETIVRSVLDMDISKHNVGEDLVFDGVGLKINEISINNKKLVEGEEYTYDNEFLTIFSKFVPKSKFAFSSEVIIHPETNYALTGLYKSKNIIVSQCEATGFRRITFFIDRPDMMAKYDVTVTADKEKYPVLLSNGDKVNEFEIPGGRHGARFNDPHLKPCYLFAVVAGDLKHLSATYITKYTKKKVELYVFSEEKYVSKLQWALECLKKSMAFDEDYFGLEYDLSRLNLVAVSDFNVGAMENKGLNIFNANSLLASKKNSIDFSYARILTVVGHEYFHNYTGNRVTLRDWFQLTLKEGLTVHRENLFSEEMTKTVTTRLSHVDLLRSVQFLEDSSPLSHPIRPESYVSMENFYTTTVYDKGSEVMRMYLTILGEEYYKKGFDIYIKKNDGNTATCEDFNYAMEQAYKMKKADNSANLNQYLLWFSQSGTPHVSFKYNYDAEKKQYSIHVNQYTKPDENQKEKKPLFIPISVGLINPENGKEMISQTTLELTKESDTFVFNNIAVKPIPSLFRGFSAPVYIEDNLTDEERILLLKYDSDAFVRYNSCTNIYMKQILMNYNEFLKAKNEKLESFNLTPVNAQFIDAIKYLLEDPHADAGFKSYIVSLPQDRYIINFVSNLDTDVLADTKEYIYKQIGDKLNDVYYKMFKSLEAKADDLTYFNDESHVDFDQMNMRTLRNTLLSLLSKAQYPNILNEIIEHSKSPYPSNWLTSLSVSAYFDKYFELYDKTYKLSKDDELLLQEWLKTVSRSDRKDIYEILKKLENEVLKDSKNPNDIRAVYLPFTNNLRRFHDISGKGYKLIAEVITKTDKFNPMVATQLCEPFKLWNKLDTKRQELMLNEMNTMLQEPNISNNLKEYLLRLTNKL

[10] = target: Procathepsin L (Homo sapiens, UniProt P07711); test: cathepsin L inhibitors, dose response, counter-screen for M1/M17 aminopeptidase inhibitor project, biochemical, QFRET, 1536-well (AID 2214)
[11] = test system: Vero; test: host cell cytotoxicity of antiviral hits, dose response, cytotoxicity control for West Nile virus antiviral project, secondary assay (AID 1650); format: functional; details: Chlorocebus sabaeus
[12] = test system: H9c2; test: cells; format: functional, cell-based; details: Rattus norvegicus, H9c2, Myocardium;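 also: confirmatory concentration-response retest of ultra-high-throughput screening hits for modulation of myocardial damage; cell death induced by hydrogen peroxide oxidative stress; compound pretreatment for 60 min then peroxide exposure for 2 h; potency is for protecting the cells against peroxide damage rather than for killing them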
[13] = target: T5, DNA repair and recombination protein RAD54-like (Homo sapiens, UniProt Q92698); test: inhibitors of human RAD54 branch migration, confirmation, biochemical, fluorescence, cherry-picked samples, dose series (AID 651657); format: functional
T5 sequence (Q92698 whole entry): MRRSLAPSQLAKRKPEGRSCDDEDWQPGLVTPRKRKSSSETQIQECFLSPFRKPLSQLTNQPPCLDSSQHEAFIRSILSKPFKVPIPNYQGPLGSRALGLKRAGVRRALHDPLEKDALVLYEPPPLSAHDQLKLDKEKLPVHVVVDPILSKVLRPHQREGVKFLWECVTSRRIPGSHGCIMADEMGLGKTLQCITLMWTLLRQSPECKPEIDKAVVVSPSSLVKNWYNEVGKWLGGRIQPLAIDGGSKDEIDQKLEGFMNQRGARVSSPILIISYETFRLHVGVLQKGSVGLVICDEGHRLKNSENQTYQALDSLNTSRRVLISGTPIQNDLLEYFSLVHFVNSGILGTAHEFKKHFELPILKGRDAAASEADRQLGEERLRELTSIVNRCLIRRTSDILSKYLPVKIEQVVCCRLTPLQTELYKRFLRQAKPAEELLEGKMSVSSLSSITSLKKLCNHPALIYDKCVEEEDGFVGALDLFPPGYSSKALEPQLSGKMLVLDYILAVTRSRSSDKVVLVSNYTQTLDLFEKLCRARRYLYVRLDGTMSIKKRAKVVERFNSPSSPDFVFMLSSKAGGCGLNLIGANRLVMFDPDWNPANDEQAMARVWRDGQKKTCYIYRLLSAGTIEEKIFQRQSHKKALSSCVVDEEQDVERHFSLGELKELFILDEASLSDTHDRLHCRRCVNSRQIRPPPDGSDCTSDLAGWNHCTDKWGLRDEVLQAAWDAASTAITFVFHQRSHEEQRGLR

[14] = target: T6, DNA repair protein RAD52 homolog (Homo sapiens, UniProt P43351); format: functional, biochemical
T6 sequence (P43351 whole entry): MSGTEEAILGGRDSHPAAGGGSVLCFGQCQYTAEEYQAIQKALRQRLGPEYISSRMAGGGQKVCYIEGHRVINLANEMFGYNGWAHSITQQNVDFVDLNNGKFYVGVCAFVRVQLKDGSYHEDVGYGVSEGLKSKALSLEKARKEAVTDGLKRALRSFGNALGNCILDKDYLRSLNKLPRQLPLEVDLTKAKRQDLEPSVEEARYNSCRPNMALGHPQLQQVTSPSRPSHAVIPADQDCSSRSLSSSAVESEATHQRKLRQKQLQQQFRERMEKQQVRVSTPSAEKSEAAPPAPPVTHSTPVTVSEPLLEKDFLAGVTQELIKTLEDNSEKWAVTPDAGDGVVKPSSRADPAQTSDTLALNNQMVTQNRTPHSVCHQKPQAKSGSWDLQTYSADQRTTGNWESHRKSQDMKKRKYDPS

[15] = Luminescence Cell-Based Dose Confirmation HTS to Identify Activators of 5'UTR Stem-Loop Driven Alpha-Synuclein mRNA Translation in H4 Neuroglioblastoma Cells. [Related pubchem assays: 1829 (Project Summary), 1814 (Primary HTS)]; format: functional
[16] = Luminescence Cell-Based Dose Response HTS to Identify Activators of Luciferase Translation or Activity in H4 […] Cells. [Related pubchem assays: 1829 (Project Summary), 1814 (Primary HTS)]; format: functional
[17] = test system: H4; test: Luminescence Cell-Based Dose Response HTS to Identify Activators of 5'UTR Stem-Loop Driven Prion Protein mRNA Translation in H4 Neuroglioblastoma Cells. [Related pubchem assays: 1829 (Project Summary), 1814 (Primary HTS)]; format: functional; details: Homo sapiens

Sequence of Procathepsin L (P07711 whole entry): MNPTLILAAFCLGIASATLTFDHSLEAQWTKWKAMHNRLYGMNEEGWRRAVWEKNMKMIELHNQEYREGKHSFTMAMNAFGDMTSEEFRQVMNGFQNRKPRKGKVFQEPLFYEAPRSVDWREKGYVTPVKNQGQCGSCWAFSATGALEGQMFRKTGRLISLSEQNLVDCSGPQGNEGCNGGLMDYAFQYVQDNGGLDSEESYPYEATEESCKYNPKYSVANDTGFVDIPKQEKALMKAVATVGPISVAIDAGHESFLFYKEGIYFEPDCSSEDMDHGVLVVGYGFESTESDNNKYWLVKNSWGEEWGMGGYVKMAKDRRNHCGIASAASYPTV

Question: With Clc1ccc(COc2ccccc2CNCc2cccnc2)cc1 as the compound, how does the EC50 [1] read?
Answer: 2.99 µM (active)

Question: For O=C(Nc1ccccc1N1CCN(C(=O)c2ccccc2)CC1)c1ccc(Br)o1, which EC50 [1] is on record?
Answer: 0.596 µM (active)

Question: And the AC50 [2]?
Answer: 10.2 µM (active)

Question: What about the AC50 [3] of the same compound?
Answer: 12.1 µM (active)

Question: And the AC50 [4]?
Answer: 15.2 µM (active)

Question: And the AC50 [5]?
Answer: 11 µM (active)

Question: With C[C@@H]1CN([C@H](C)CO)C(=O)c2cccc(NC(=O)C3CCCCC3)c2O[C@H]1CN(C)Cc1ccc(Cl)c(Cl)c1 as the compound, how does the AC50 [6] read?
Answer: 3.93 µM (active)

Question: Which “Absolute IC50 (XBP1)” value [7] does the source give for Oc1ccc(Br)cc1-c1nc2cnccn2c1NC1CCCCC1 here?
Answer: 10 µM

Question: Which IC50 [8] does the source give for O=C(Nn1c(Cc2cccs2)nc2ccccc2c1=O)c1cccs1 here?
Answer: > 73.5 µM (not active)

Question: What about the IC50 [9] of the same compound?
Answer: 11.9 µM (active)

Question: And the IC50 [10]?
Answer: > 59.6 µM (not active)

Question: What does the source list for CCC(=O)N1N=C(c2c(O)nc3ccc(Cl)cc3c2-c2ccccc2)CC1c1ccco1 (stereo not drawn)?
Answer: CC50 [11]: 73.3 µM (active); Absolute IC50 (XBP1) [7]: 10 µM

Question: With CCC(C)NCCOCCOc1ccccc1-c1ccccc1 (stereo not drawn) as the compound, how does the EC50 [1] read?
Answer: 1.19 µM (active)

Question: Which IC50 [12] does the source give for COc1cc2nc(Nc3ccc(F)cc3)nc(N)c2cc1OC here?
Answer: > 79 µM (inactive)

Question: And the AC50 [13]?
Answer: 49.9 µM (active)

Question: And the AC50 [14]?
Answer: 7.26 µM (active)

Question: For CCCNCc1cc(Br)ccc1OCC(=O)NCCc1ccccc1, which EC50 [1] is on record?
Answer: 0.841 µM (active)

Question: With C[C@H]1CN([C@@H](C)CO)C(=O)c2cc(NS(=O)(=O)c3ccc(F)cc3)ccc2O[C@@H]1CN(C)Cc1ccc(Oc2ccccc2)cc1 as the compound, how does the AC50 [6] read?
Answer: 3.72 µM (active)

Question: Which EC50 [15] does the source give for CC1CCc2sc3nc(N4CCN(CCO)CC4)n4ncnc4c3c2C1 (stereo not drawn) here?
Answer: 24.7 µM (active)

Question: And the EC50 [16]?
Answer: 8.04 µM (active)

Question: And the EC50 [17]?
Answer: 34.7 µM (active)

Question: What about the AC50 [13] of the same compound?
Answer: 34.7 µM (active)

From ChEMBL document CHEMBL1201862, “PubChem BioAssay data set” (2004)
